Reference: patent US9340563B2, “Salts of isophosphoramide mustard and analogs thereof” (priority 2007, dated 2016)
In brackets after ≈: the same amount, converted by molar mass. Like-named read-outs stand apart in the source and are kept apart here.

Key:
[1] = system: CPA-resistant human sarcoma cells (OS31 osteosarcoma); details: mice with xenografts of CPA-resistant human sarcoma cells
Description: CB17 female scid*/* mice (Taconic Farms, Germantown, N.Y.) were implanted with tumor subcutaneous flank tumors. […] For transplantation with OS1 tumor, mice were anesthetized with 4% isoflurane. After a small incision was made in the flank of the mouse, and a 4 mm by 4 mm section of tumor implanted subcutaneously.
When the tumors were approximately 0.20 to 0.7 cm in diameter, tumor-bearing mice were randomized into groups of 5 to 8 mice with 1 treatment group and 1 control group. Treated mice received tasidotin at a dose of 90 mg/kg/day as an intraperitoneal injection daily for 5 days starting on days 1 and 21. Assuming a spherical tumor, the volume was determined by the formula: mm^3=*/6(D)d^2, where D is the maximal diameter and d is the diameter perpendicular to D. Volumes are expressed as relative tumor volumes (RTV) where the tumor volume at any given time point is divided by the starting tumor volume. The RTV for treated and control mice were measured a minimum of once per week.
A partial response is defined as greater than 50% regression in tumor volume (RTV<0.5) but with a measurable tumor mass of greater than 0.10 cm^3. Loss of measurable tumor mass (<0.10 cm^3) at any point during the treatment period (6 weeks) was defined as a complete response (CR). […]

pH (Example 16) = format: physicochemical
[2] = Solubility and reconstitution time (Example 16); format: physicochemical
[3] = format: physicochemical; details: temperature and duration of storage
[4] = format: physicochemical; details: pH 7 buffer, approximately 25° C.
[5] = system: MX-1 human mammary tumors; assay: MX-1 human mammary tumor xenograft (Example 7); format: in vivo, athymic NCr-nu/nu mice
Description: Each concentration was then aliquoted for daily use, frozen, stored at −20° C., and thawed for daily use.
The control groups were treated either ip or po with the vehicle (saline).
Study Duration: The study was terminated 50 days after tumor implantation.

MX-1 human mammary tumor = MX-1 human mammary tumor xenograft (Example 8)
Description: Animal Care: Five-weeks-old female athymic NCr-nu/nu mice were purchased from Harlan (Prattville, Ala.).
Tumor Model: Thirty-to-forty mg fragments of MX-1 human mammary tumor maintained in an in vivo passage were implanted sc in mice in the mammary fat pad using a 12-gauge trocar needle and allowed to grow. The day of tumor implantation was designated as day 0. […] A sufficient number of mice were implanted so that tumors in a weight range as narrow as possible were selected for the trial on the day of treatment initiation (day 6 after tumor implantation). Those animals selected with tumors in the proper size range were assigned to the various treatment groups so that the median tumor weights on the first day of treatment were as close to each other as possible (144-162 mg).
All dosing solutions were kept on ice after formulation and were administered within 30 min. All injections were administered on the basis of exact body weight with the injection volume being 0.2 mL/10 g body weight.
Drug Treatment: The experiment consisted of 16 treatment groups of eight mice per group and two vehicle-treated control groups with ten mice each for a total of 148 mice on the first day of treatment. All agents (and vehicle) were administered daily for five consecutive days (q1d×5). […] The control groups were treated either ip (group no. 1) or po (group no. 10) with the vehicle (saline).
Tumor Measurements and Body Weights: The sc tumors were measured and the animals were weighed twice weekly starting with the first day of treatment. Tumor volume was determined by caliper measurements (mm) and using the formula for an ellipsoid sphere: L×W^2/2=mm^3, where L and W refer to the larger and smaller perpendicular dimensions collected at each measurement. This formula is also used to calculate tumor weight, assuming unit density (1 mm^3=1 mg.).
Study Duration: The study was terminated 52 days after tumor implantation. Any animal that became moribund or whose tumor became ulcerated and reached 4,000 mg was euthanized prior to study termination.
Parameters Evaluated: Number of nonspecific deaths, number of partial and complete tumor regressions, number of tumor-free survivors, and the individual animals' times to reach two tumor mass doublings were determined. The median time to reach two tumor mass doubling in the treatment groups (T) and control group (C) was used in the calculation of the overall delay in the growth of the median tumor (T-C).
Statistical Analysis: The individual animal's time to reach two tumor mass doublings was used as the endpoint in a Student's t-test/Mann Whitney rank sum test in order to compare statistically the growth data between groups.

O=P1(N(CCCl)CCCl)NCCCO1 (stereo not drawn) [CPA, cyclophosphamide]
effect of therapy on sarcoma growth [1]: no effect

O=P(O)(NCCCl)NCCCl [IPM, isophosphoramide mustard]
pH (pH (Example 16)): 3.02 | Solubility at 25° C. (saline) [2]: 14 mg/mL (≈ 63.3 mM) | Current Stability Data Summary: No change in purity at [3]: −70° C., 2 years | % Purity ([4]; 0.5 hours): 89.5% | % Purity ([4]; 1.0 hours): 80.3% | % Purity ([4]; 2.0 hours): 64.8% | % Purity ([4]; 3.0 hours): 52.1% | % Purity ([4]; reconstitution time 0 hours): 100.00% | maximum loss in mean body weight ([5]; ip q1d×5, 24 mg/kg/dose): 5% | tumor growth delay (T-C) ([5]; ip q1d×5, 24 mg/kg/dose): 2.6 days | maximum loss in mean body weight ([5]; ip q1d×5, 36 mg/kg/dose): 0% | maximum loss in mean body weight ([5]; po q1d×5, 81 mg/kg/dose): 5% | tumor growth delay (T-C) ([5]; po q1d×5, 81 mg/kg/dose): 4.0 days | maximum loss in mean body weight ([5]; po q1d×5, 120 mg/kg/dose): 5% | tumor growth delay (T-C) ([5]; po q1d×5, 120 mg/kg/dose): 4.6 days | maximum loss in mean body weight (MX-1 human mammary tumor; ip q1d×5, 24 mg/kg/dose): 2% | tumor growth delay (T-C) (MX-1 human mammary tumor; ip q1d×5, 24 mg/kg/dose): 0.3 days | maximum loss in mean body weight (MX-1 human mammary tumor; ip q1d×5, 36 mg/kg/dose): 8% | maximum loss in mean body weight (MX-1 human mammary tumor; po q1d×5, 81 mg/kg/dose): 9% | tumor growth delay (T-C) (MX-1 human mammary tumor; po q1d×5, 81 mg/kg/dose): 2.3 days | maximum loss in mean body weight (MX-1 human mammary tumor; po q1d×5, 120 mg/kg/dose): 18% | tolerability (MX-1 human mammary tumor; po q1d×5, 120 mg/kg/dose): toxic | deaths (MX-1 human mammary tumor; po q1d×5, 120 mg/kg/dose, eight mice per group): two deaths
